Measured values from paper PMC10254530, “Design and Synthesis of Brefeldin A-Isothiocyanate Derivatives with Selectivity and Their Potential for Cervical Cancer Therapy” (Molecules, 2023).

Assays:
[1] = tested on: HeLa cells; test: Cell cycle analysis, PI staining flow cytometry; type: cell-based, human; conditions: 48 h; for cells in G1 phase: control 33.42%
Protocol: Cell cycle was detected by PI single staining method. Cell suspension with a concentration of 2 × 10^5 cells/mL was prepared after cell counting. 1 mL cell suspension was added to each well of the 6-well plate and then placed in an incubator overnight. The medium in each well was discarded, and 1 mL of gradient diluted derivative solution 6 (0, 0.46, 0.92 and 1.84 µM) was added (the control group was added with serum-free medium). According to the manual of Cell Cycle Detection Kit KGA511, after 48 h, HeLa cells were collected and fixed with 70% ethanol for 2 h. After centrifugation, 100 μL RNase A (working concentration 20 μg/mL) was added and placed in a 37 °C water bath for 30 min. Then 400 μL PI staining (working concentration 50 μg/mL) was added and mixed, centrifugal tube was placed in the dark at 4 °C for 30 min. Red fluorescence at the excitation wavelength of 488 nm was recorded by flow cytometry.

[2] = tested on: A549 cells; test: CCK-8 antiproliferative assay, A549; type: cell-based; conditions: Homo sapiens, A549; CCK-8, 48 h, mean ± SD of three experiments; read-out: IC50 A549
Protocol: (§1) All cells were cultured in Dulbecco’s Modified Eagle’s Medium (DMEM) (Burlington, MA, USA) or Roswell Park Memorial Institute (RPMI)-1640 medium containing 10% fetal bovine serum and 1% penicillin/streptomycin in an incubator at 37 °C and 5% CO2. […] Cell suspension with a concentration of 8 × 10^4 cells/mL was prepared after cell counting. 100 μL cell suspension was added to each well of the 96-well plate and then placed in an incubator overnight. Most of the derivatives were configured into 80 mM, 20 mM or 4 mM stock solution in DMSO, and the stock solution concentration of BFA and paclitaxel was 0.4 mM. […] The medium in each well was discarded, and 100 μL of gradient diluted derivative solution was added (the control group was added with serum-free medium).

[3] = tested on: A375 cells; test: CCK-8 antiproliferative assay, A375; type: cell-based; conditions: Homo sapiens, A-375; CCK-8, 48 h, mean ± SD of three experiments; read-out: IC50 A375
Protocol: as §1

[4] = tested on: HeLa cells; test: Mitochondrial membrane potential analysis, JC-1 staining; type: cell-based, human; conditions: 48 h; for JC-1 quadrant Q1-LL / JC-1 quadrant Q1-UL: control 0.00%; for JC-1 green fluorescent cells (decreased mitochondrial membrane potential), quadrant Q1-LR: control 4.07%; for JC-1 quadrant Q1-UR: control 95.93%
Protocol: Mitochondrial membrane potential was detected by the JC-1 staining method. According to the manual of JC-1 Apoptosis Detection Kit KGA601, HeLa cells in 6-well plates were collected by 0.25% trypsin without EDTA (in PBS) digestion after 48 h administration. The Incubation Buffer was prepared according to the instructions, mixing and preheating to 37 °C. 500 μL 1 × Incubation Buffer was mixed with 1 μL JC-1 (working concentration 10 μg/mL) to suspend HeLa cells and then the cells were incubated for 20 min. Cells were collected by centrifugation at room temperature, washed twice with 1 × Incubation Buffer and then detected by BD FACSVerse flow cytometer.

[5] = tested on: HeLa cells; test: CCK-8 antiproliferative assay, HeLa; type: cell-based, human; conditions: Homo sapiens, HeLa; CCK-8, 48 h, mean ± SD of three experiments; read-out: IC50 HeLa
Protocol: as §1

[6] = tested on: L-02 cells; test: CCK-8 cytotoxicity assay, normal liver L-02; type: cell-based; conditions: Homo sapiens, L02; CCK-8, 48 h, normal liver cells, mean ± SD of three experiments; read-out: IC50 L-02
Protocol: as §1

[7] = tested on: HepG2 cells; test: CCK-8 antiproliferative assay, HepG2; type: cell-based; conditions: Homo sapiens, HepG2; CCK-8, 48 h, mean ± SD of three experiments; read-out: IC50 HepG2
Protocol: as §1

[8] = tested on: HeLa cells; test: Hoechst 33258 staining assay; type: cell-based, human; conditions: HeLa, 0.46, 0.92 and 1.84 µM, 48 h
Protocol: HeLa cells in 6-well plates were collected after administration. According to the manual of Apoptotic Cell Hoechst 33258 Detection Kit KGA211, HeLa cells were fixed with paraformaldehyde for 30 min. After centrifugation, HeLa cells were soaked in PBS for 5 min and washed 3 times. An appropriate amount of Hoechst 33258 staining solution (working concentration 0.5 μg/mL) was added so that fully covers the HeLa cells and then the cells were left at room temperature for 10 min. After dyeing, HeLa cells were soaked in PBS for 5 min and washed 3 times. Observation under an Olympus (Tokyo, Japan) IX73 fluorescence microscope after sealing with an anti-fluorescence quenching sealing solution (glycerol:PBS = 1:9).

[9] = tested on: MDA-MB-231 cells; test: CCK-8 antiproliferative assay, MDA-MB-231; type: cell-based; conditions: Homo sapiens, MDA-MB-231; CCK-8, 48 h, mean ± SD of three experiments; read-out: IC50 MDA-MB-231
Protocol: as §1

[10] = tested on: HeLa cells; test: Annexin V-FITC/PI apoptosis analysis, flow cytometry; type: cell-based, human; conditions: 48 h, control 3.21%
Protocol: According to the manual of Annexin V-FITC/PI Apoptosis Detection Kit KGA105, HeLa cells in 6-well plates were collected by 0.25% trypsin without EDTA (in PBS) digestion after 48 h administration by the above method. After washing with PBS 3 times, 500 μL Binding Buffer was added to suspend HeLa cells. Then Annexin V-FITC and PI were added successively in dark for 15 min, and HeLa cell apoptosis was detected by BD FACSVerse flow cytometer.

[11] = tested on: U87 cells; parameters: method as in PMID 35557894; conditions: glioblastoma multiforme U87 cells in vitro; read-out: IC50, cytotoxic activity against U87 cells; cited from earlier work
[12] = tested on: human T lymphoblastoid cell line Jurkat; parameters: method as in PMID 22200402; conditions: 0.5 μM; cited from earlier work

For `C[C@H]1CCC/C=C/[C@@H]2C[C@H](O)C[C@H]2[C@H](OC(=O)c2ccc(N=C=S)cc2)/C=C/C(=O)O1` [Compound 6, (1R,2E,6S,10E,11aS,13S,14aR)-13-Hydroxy-6-methyl-4-oxo-1,6,7,8,9,11a,12,13,14,14a-decahydro-4H-cyclopenta[f][1]oxacyclotridecin-1-yl 4-isothiocyanatobenzoate], the “cells in G1 phase” value ([1]; 0.46 µM) was 43.39%, the “cells in G1 phase” value ([1]; 0.92 µM) was 49.55% and the “cells in G2 phase” value ([1]; 1.84 µM, control 22.94%) was 12.50%. For the same compound, the “cells in G1 phase” value ([1]; 1.84 µM) was 60.80%, the “cells in S phase” value ([1]; 1.84 µM, control 43.64%) was 26.70% and the IC50 [2] was 7.18 ± 0.51 µM. The IC50 [3] was 3.08 ± 0.43 µM, the “JC-1 quadrant Q1-LL” value ([4]; 0.46 µM) was 0.00% and the “JC-1 quadrant Q1-UL” value ([4]; 0.46 µM) was 0.00%. For the same compound, the “JC-1 green fluorescent cells (decreased mitochondrial membrane potential), quadrant Q1-LR” value ([4]; 0.46 µM) was 13.88%, the “JC-1 quadrant Q1-UR” value ([4]; 0.46 µM) was 86.12% and the “JC-1 quadrant Q1-LL” value ([4]; 0.92 µM) was 0.00%. The “JC-1 quadrant Q1-UL” value ([4]; 0.92 µM) was 0.00%, the “JC-1 green fluorescent cells (decreased mitochondrial membrane potential), quadrant Q1-LR” value ([4]; 0.92 µM) was 24.80% and the “JC-1 quadrant Q1-UR” value ([4]; 0.92 µM) was 75.20%. For the same compound, the “JC-1 quadrant Q1-LL” value ([4]; 1.84 µM) was 0.00%, the “JC-1 quadrant Q1-UL” value ([4]; 1.84 µM) was 0.00% and the “JC-1 green fluorescent cells (decreased mitochondrial membrane potential), quadrant Q1-LR” value ([4]; 1.84 µM) was 39.69%. The “JC-1 quadrant Q1-UR” value ([4]; 1.84 µM) was 60.31%, the IC50 [5] was 1.84 ± 0.08 µM and the IC50 [6] was over 80 µM. For the same compound, the IC50 [7] was 20.8 ± 1.22 µM, the “nuclear morphology, Hoechst33258 staining” value [8] was “nuclear fragmentation” and the IC50 [9] was 6.83 ± 0.61 µM. The “percentage of cells in the early and late stages of apoptosis” value (“percentage of cells” for short) ([10]; 0.46 µM) was 16.04%, the “percentage of cells” value ([10]; 0.92 µM) was 26.41% and the “percentage of cells” value ([10]; 1.84 µM) was 39.03%.
In the case of `C[C@@H]1CCC2[C@@H](C)[C@@H](OCCCN=C=S)O[C@@H]3O[C@@]4(C)CCC1[C@@]23OO4` (some centres unmarked) [compound B], the IC50 [11] is given as 7.41 µM.
In the case of `O=C1c2ccc3c4c(ccc(c24)C(=O)N1CCCN=C=S)C(=O)N(CCCN=C=S)C3=O` [derivative A], the “effect on apoptosis in Jurkat cells” value [12] is listed as “induced apoptosis by activating caspase-8”.
